From patent US20240408004A1, “COMPOSITIONS, DEVICES, AND METHODS FOR THE TREATMENT OF OVERDOSE AND REWARD-BASED DISORDERS” (priority 2018, published 2024)
Converted amounts (≈) assume the structure as drawn.

How the values were obtained:
rabbit eye = conditions: concentrations of 25%; cited from earlier work
[1] = Intranasal naltrexone formulation experiments (solubility, crystallization, discoloration, osmolality); assay type: physicochemical
Description: A series of experiments were performed to identify formulations of naltrexone which would make pharmaceutically appropriate intranasal products as disclosed herein.
A range of formulations were tested with the following observations. […] Several preparations were made at 30 mg/mL thereafter, which additionally contained fixed amounts of (dodecyl maltoside 0.25%) and NaCl (about 0.74%), and varying amounts of preservative (benzalkonium chloride, 0-0.02%) and stabilizing agent (EDTA, 0-0.3%). Crystallization behavior and discoloration were visually monitored. All of these formulations developed crystals when stored under refrigerated conditions. […] The 0.3% EDTA formulation appeared to resist yellowing for the longest period of time. Thereafter, a range of co-solvents were assessed for their potential to reduce crystallization of drug out of solution. Polyethylene glycol (PEG), propylene glycol, and benzyl alcohol were tested.

[2] = Safety assessments of Example 4 study (adverse events, nasal irritation, vital signs, ECG); assay type: in vivo, human
Description: Sudy Goals. […] Secondary endpoints included adverse events (AEs), vital signs (heart rate, sitting blood pressure, and respiration rate), electrocardiogram (ECG), clinical laboratory changes and nasal irritation using the nasal irritation scale.
On dosing days, the order of assessments were ECG, vital signs, then PK blood collection when scheduled at the same nominal times. The target time of the PK blood collection was considered the most critical and if the collection was more than ±1 minute from the scheduled time for the first 60 minutes of collections or more than ±5 minutes for the scheduled time points thereafter, this was considered a protocol deviation. ECG and vital signs were collected within the 10 minute period before the nominal time of blood collections. At screening, admission, and discharge, ECG, and vital signs were checked once per day. […] Clinical laboratory measurements were repeated after the last PK blood draw prior to clinic discharge. AEs were assessed by spontaneous reports by subjects, by examination of the nasal mucosa, by measuring vital signs, ECG, and clinical laboratory parameters.
Safety Assessments. […] ECG and vital signs was performed within the 10 minute period before the nominal time for post-dose blood collections. AEs were recorded from the start of study drug administration until clinic discharge.

[3] = cited from earlier work
[4] = intranasal formulation with […] dodecyl maltoside

## CCCCCCCCCCCCO[C@@H]1O[C@H](CO)[C@@H](O[C@H]2O[C@H](CO)[C@@H](O)[C@H](O)[C@H]2O)[C@H](O)[C@H]1O [Intravail®, 1-O-n-dodecyl-β-D-maltopyranoside]
Rabbit eye
  irritation in the rabbit eye model: non-irritating

## O=C1CC[C@@]2(O)[C@H]3Cc4ccc(O)c5c4[C@@]2(CCN3CC2CC2)[C@H]1O5 [naltrexone, 17-(cyclopropylmethyl)-4,5α-epoxy-3,14-dihydroxymorphinan-6-one]
[1]; room temperature, indicating incomplete dissolution
  appearance of 50 mg/mL preparation: cloudy
[1]; thermodynamic from solid, ambient temperature, read-out: solubility limit in solution
  solubility: ~40 mg/mL (≈ 117 mM)
[2]; 5 subjects, regardless of severity or attribution
  subjects with dizziness: 36%
[2]; 7 subjects
  subjects with AEs of the Nervous System Disorders SOC: 50%
[2]; 10 of 14 subjects, any dosing period, any relationship to drug
  subjects who experienced at least one AE: 71%
[2]; hypertension, syncope, out-of-range pre-dose vital signs
  discontinuation from the study due to AEs: Three subjects were discontinued
[2]; in vivo
  severe AEs: No severe AEs were observed

## CNS(=O)(=O)Cc1ccc2[nH]cc(CCN(C)C)c2c1 [sumatriptan]
[3]; intranasal formulation with […] dodecyl maltoside vs Imitrex nasal spray
  increase of total exposure (AUC): 32%
[3]; [4]
  Tmax: 8 to 10 min
  increase of maximum plasma concentration in comparison to Imitrex nasal spray: almost four-fold
